Reference: US7524885B2, “Compounds that stimulate glucose utilization and methods of use” (The Governors of the University of Alberta, priority 2002, dated 2009)

Tested on: isolated working rat heart
Test: Glucose oxidation in isolated perfused working rat heart ([U-14C]glucose, 14CO2 production)
Conditions: Table 2A; screening concentration 100 μM; isolated working rat heart; read-out: Glucose Oxidation (% above control)
Method: Rat hearts were cannulated for isolated working heart 60 minute aerobic perfusions as described in J Pharmacol Exp Ther. 1993; 264:135-144, the entire disclosure of which is incorporated herein by reference.
Male Sprague-Dawley rats (0.3-0.35 kg) were anesthetized with pentobarbital sodium (60 mg/kg IP) and hearts were quickly excised, the aorta was cannulated and a retrograde perfusion at 37° C. was initiated at a hydrostatic pressure of 60 mm Hg. Hearts were trimmed of excess tissue, and the pulmonary artery and the opening to the left atrium were then cannulated. After 15 min of Langendorff perfusion, hearts were switched to the working mode by clamping the aortic inflow line from the Langendorff reservoir and opening the left atrial inflow line. The perfusate was delivered from an oxygenator into the left atrium at a constant preload pressure of 11 mm Hg. Perfusate was ejected from spontaneously beating hearts into a compliance chamber (containing 1 ml of air) and into the aortic outflow line. The afterload was set at a hydrostatic pressure of 80 mm Hg. All working hearts were perfused with Krebs'-Henseleit solution containing calcium 2.5 mmol/L, glucose 5.5 mmol/L, 3% bovine serum albumin (fatty acid free, initial fractionation by heat shock, Sigma), and with 1.2 mmol/L palmitate. Palmitate was bound to the albumin as described in J Bio Chem. 1992; 267:3825-3831, the entire disclosure of which is incorporated herein by reference.
The perfusate was recirculated, and pH was adjusted to 7.4 by bubbling with a mixture containing 95% O2 and 5% CO2.
Spontaneously beating hearts were used in all perfusions. Heart rate and aortic pressure were measured with a Biopac Systems Inc. blood pressure transducer connected to the aortic outflow line. Cardiac output and aortic flow were measured with Transonic T206 ultrasonic flow probes in the preload and afterload lines, respectively. Coronary flow was calculated as the difference between cardiac output and aortic flow. Cardiac work was calculated as the product of systolic pressure and cardiac output.
Measurement of Glucose Oxidation: Glucose oxidation was measured simultaneously by perfusing hearts with [U-^14C] glucose according to the procedures discussed in Saddik M, et al., J Bio Chem. 1992; 267:3825-3831. The entire disclosure of this reference is incorporated herein by reference. The total myocardial ^14CO2 production was determined at 10-min intervals from the 60-min aerobic period. Glucose oxidation rates were determined by quantitative measurement of ^14CO2 production as described in Barbour RL, et al., Biochemistry. 1984; […]. The entire disclosure of this reference is incorporated herein by reference. ^14CO2 production for the control group were compared with the ^14CO2 production for the group treated with cyclopropanecarboxylic acid, 2-[2-(2-methoxy-ethoxy)-ethoxy]-ethyl ester. Results are shown on FIG. 1 and TABLE 2A.
The procedure of Example A for was followed except that cyclobutanecarboxylic acid, 2-[2-(2-methoxy-ethoxy)-ethoxy]-ethyl ester in 1 μM, 10 μM, 100 μM and 1000 μM amounts was added to the buffer in place of the cyclopropanecarboxylic acid, 2-[2-(2-methoxy-ethoxy)-ethoxy]-ethyl ester. The results are illustrated in FIG. 2 and TABLE 2A.
The procedure of Example A was followed except that cyclopropanecarboxylic acid, 2-isopropoxy-ethyl ester in 1 μM, 10 μM, 100 μM and 1000 μM amounts was added to the buffer in place of the cyclopropanecarboxylic acid, 2-[2-(2-methoxy-ethoxy)-ethoxy]-ethyl ester. The results are illustrated in FIG. 3 and TABLE 2A.
The procedure of Example A was followed except that various cyclobutanecarboxylic acid derivatives, cyclopropanecarboxylic acid derivatives and cyclobutanecarboxylic acid in the amounts of 100 μM or 1000 μM was added to the buffer in place of the cyclopropanecarboxylic acid, 2-[2-(2-methoxy-ethoxy)-ethoxy]-ethyl ester.

In order of falling activation at 100 µM:
1. CCOCCOC(=O)C1CC1 [Compound 15MM068, Cyclopropanecarboxylic acid 2-ethoxy-ethyl ester]  416%
2. O=C(OCCN(CCOC(=O)C1CC1)CCN(CCOC(=O)C1CC1)CCOC(=O)C1CC1)C1CC1 [Compound 23MM076, Cyclopropanecarboxylic acid 2-[{2-[bis(2-cyclopropanecarbonyloxy-ethyl)-amino]-ethyl}-(2-cyclopropanecarbonyloxy-ethyl)-amino] ethyl ester]  274%
3. O=C(OCCOCCOC(=O)C1CCC1)C1CCC1 [Compound 20MM073, Cyclobutanecarboxylic acid, 2-(2-cyclobutanecarbonyloxy-ethoxy)-ethyl ester]  243%
4. O=C(OCCOCCOCCOC(=O)C1CC1)C1CC1 [Compound 21MM074, Cyclopropanecarboxylic acid, 2-[2-(2-cyclopropanecarbonyloxy-ethoxy)-ethoxy]-ethyl ester]  228%
5. CC(C)OCCNC(=O)C1CC1 [Compound 24MM077, Cyclopropanecarboxylic acid (2-isopropoxy-ethyl)-amide]  217%
6. CC(C)OCCOC(=O)C1CC1 [Compound 17MM070, Cyclopropanecarboxylic acid 2-isopropoxy-ethyl ester]  208%
7. CC(C)OCCOC(=O)[C@@H]1C[C@H]1c1ccccc1 (racemic) [Compound 25MM078, trans-2-Phenyl-cyclopropanecarboxylic acid 2-isopropoxy-ethyl ester]  200%
8. O=C(OCCOCCOCCOC(=O)C1CCC1)C1CCC1 [Compound 22MM075, Cyclobutanecarboxylic Acid, 2-[2-(2-cyclobutanecarbonyloxy-ethoxy)-ethoxy]-ethyl ester]  184%
9. CCOCCOC(=O)C1CCC1 [Compound 16MM069, Cyclobutanecarboxylic acid 2-ethoxy-ethyl ester]  162%
10. O=C(OCCOCCOCc1ccccc1)C1CC1 [Compound 4MM057, Cyclopropanecarboxylic acid 2-(2-benzyloxy-ethoxy)-ethyl ester]  104%
11. COCCOCCOCCOC(=O)C1CC1 [Compound 1MM054, Cyclopropanecarboxylic acid 2-[2-(2-methoxy-ethoxy)-ethoxy]-ethyl ester]  102%
12. CC(C)OCCOC(=O)C1CCC1 [Compound 18MM071, Cyclobutanecarboxylic acid 2-isopropoxy-ethyl ester]  97%
13. O=C(OCCOCCOC(=O)C1CC1)C1CC1 [Compound 19MM072, Cyclopropanecarboxylic acid, 2-(2-cyclopropanecarbonyloxy-ethoxy)-ethyl ester]  97%
14. CCCCCCOCCOCCOC(=O)C1CC1 [Compound 11MM064, Cyclopropanecarboxylic acid 2-(2-hexyloxy-ethoxy)-ethyl ester]  83%
15. CN(C)CCOCCOC(=O)C1CC1 [Compound 9MM062, Cyclopropanecarboxylic acid 2-(2-dimethylamino-ethoxy)-ethyl ester]  77%
16. O=C(OCCOCCOCc1ccccc1)C1CCC1 [Compound 6MM059, Cyclobutanecarboxylic acid 2-(2-benzyloxy-ethoxy)-ethyl ester]  68%
17. CCCCOCCOCCOC(=O)C1CCC1 [Compound 7MM060, Cyclobutanecarboxylic acid, 2-(2-butoxy-ethoxy)-ethyl ester]  65%
18. COCCOCCOCCOC(=O)C1CCC1 [Compound 3MM056, Cyclobutanecarboxylic Acid, 2-[2-(2-methoxy-ethoxy)-ethoxy]-ethyl ester]  54%
19. COCCOCCOC(=O)C1CCC1 [Compound 14MM067, Cyclobutanecarboxylic acid 2-(2-methoxy-ethoxy)-ethyl ester]  50%
20. CN(C)CCOCCOC(=O)C1CCC1 [Compound 10MM063, Cyclobutanecarboxylic acid 2-(2-dimethylamino-ethoxy)-ethyl ester]  41%
21. COCCOCCOC(=O)C1CC1 [Compound 13MM066, Cyclopropanecarboxylic acid 2-(2-methoxy-ethoxy)-ethyl ester]  20%
22. CCCCCCOCCOCCOC(=O)C1CCC1 [Compound 12MM065, Cyclobutanecarboxylic acid 2-(2-hexyloxy-ethoxy)-ethyl ester]  0%

Same assay, conditions: Table 2A; screening concentration 1000 μM; isolated working rat heart; read-out: Glucose Oxidation (% above control)

In order of rising activation at 1000 µM:
1. CC(NC(=O)C1CC1)C(=O)O (stereo not drawn) [Compound 5MM058, 2-(Cyclopropanecarbonyl-amino)-propionic acid]  40%
2. O=C(O)CNC(=O)C1CCC1 [Compound 2MM055, (Cyclobutanecarbonyl-amino)-acetic acid]  58%

Same assay, conditions: Table 2B; screening concentration 100 μM; isolated working rat heart; read-out: Glucose Oxidation (% above control)

In order of rising activation at 100 µM:
1. CCOCCOC(=O)C1C(C)(C)C1(C)C [Compound 29MM082, 2,2,3,3-Tetramethyl-cyclopropanecarboxylic acid, 2-Ethoxy-ethyl ester]  110%
2. CCOCCOC(=O)[C@]1(/C=C/c2ccccc2)C[C@H]1c1ccccc1 [Compound 34MM087, (1S,2S)-2-phenyl-1-styrl-cyclopropanecarboxylic acid 2 ethoxy-ethyl ester]  112%
3. CCOCCOC(=O)C1(C)CC1(Cl)Cl (stereo not drawn) [Compound 33MM086, 2,2-Dichloro-1-methyl-cyclopropanecarboxylic acid 2-ethoxy-ethyl ester]  117%
4. CCOCCOC(=O)C1(C)CC1 [Compound 28MM081, 1-Methyl-cyclopropanecarboxylic acid, 2-Ethoxy-ethyl ester]  121%
5. CCOCCOC(=O)C1(c2ccccc2)CC1 [Compound 27MM080, 1-Phenyl-cyclopropanecarboxylic acid 2-ethoxy-ethyl ester]  148%
6. CCOCCOC(=O)C1CC1C (stereo not drawn) [Compound 32MM085, Trans-2-methyl-cyclopropanecarboylic acid 2-ethoxy-ethyl ester]  150%
7. CC(=O)NCCSC(=O)C1CC1 [Compound 38MM091, Cyclopropanecarbothioic acid S-(2-acetylamino-ethyl) ester]  176%
8. COCCOC(=O)C1CC1 [Compound 30MM083, Cyclopropanecarboxylic acid, 2-Methoxy-ethyl ester]  197%
9. CCOCCOC(=O)C1(C(=O)OCCOCC)CC1 [Compound 31MM084, Cyclopropane-1,1-dicarboylic acid bis-(2-ethoxy-ethyl) ester]  197%
10. Cc1ncsc1CCOC(=O)C1CC1 [Compound 36MM089, Cyclopropanecarboxylic acid 2-(4-methyl-thiazol-5-yl)-ethyl ester]  202%
11. O=C(OC[C@H]1O[C@H](OC(=O)C2CC2)[C@H](OC(=O)C2CC2)[C@@H](OC(=O)C2CC2)[C@@H]1OC(=O)C1CC1)C1CC1 [Compound 35MM088, 1,2,3,4,6-penta-O-(cyclopropanecarbonyl)-D-glucopyranose]  205%
12. O=C(OCCN1CCOCC1)C1CC1 [Compound 39MM092, Cyclopropanecarboxylic acid 2-morpholin-4-yl-ethyl ester]  233%
13. COC(=O)CSC(=O)C1CC1 [Compound 37MM090, Cyclopropanecarbonylsulfanyl-acetic acid methyl ester]  251%
14. CCC1(COC(=O)C2CC2)COCOC1 [Compound 40MM093, Cyclopropanecarboxylic acid 5-ethyl-[1,3]-dioxan-5.ylmethyl ester]  260%
15. O=C(OCC1COc2ccccc2O1)C1CC1 (stereo not drawn) [Compound 41MM094, Cyclopropanecarboxylic acid 2,3-dihydro-benzo(1,4)dioxin-2-ylmethyl ester]  389%
